{"source": "patent US6645903B2", "about": "“Fluoroborane salts comprising a reactive cation and uses thereof” (Colorado State University Research Foundation, priority 2000, dated 2003)", "key": {"[1]": {"conditions": "cited from earlier work"}, "[2]": {"conditions": "similar transformation, comparison value; cited from earlier work"}, "[3]": {"conditions": "cited from earlier work", "remark": "listed apart in the source"}, "[4]": {"assay": "Polymerization of ethylene with one equivalent of Cp2ZrMe2", "conditions": "with Cp2ZrMe2, hexanes, 660 torr ethylene, from ethylene pressure decrease", "procedure": "A suspension of [CPh3][1-C12H25-CB11F11] (5.0 mg) in 0.5 ml of methylcyclohexane-d14 was treated with 0.5 ml of methylcyclohexane-d14 solution of Al(CH3)3 (2.2 mg) for 20 h. […] The filtrate was diluted with 7 ml of hexanes and transferred into a 50 ml Kontes tube. The solution was treated with 1 ml of hexanes solution of Cp2ZrMe2 (1.3 mg). The mixture was treated with 660 torr of ethylene. The ethylene pressure was decreased to 470 torr within 5 minutes due to the formation of polyethylene (white solid). More ethylene (812 torr) was added to the mixture and the ethylene pressure was decreased to 295 torr within the next 2 hours. The mixture was quenched with 5 ml of methanol and stirred for 20 minutes. A solid polyethylene was collected (210 mg) by filtration and characterized by DSC (Tm=129° C.). The catalytic activity during the first 5 minutes (good agitation) was calculated based on the ethylene pressure decrease and was at least 150 kg PE/mol Zr·h·atm."}, "[5]": {"assay": "Stability in solution and on storage", "format": "physicochemical", "procedure": "where R^1, R^2, Q, M^1, m, n, and q are those defined above. […] In addition, unlike many other aluminum metal catalysts, Compound of Formula IA has a relatively high solubility in aliphatic hydrocarbon solvents. For example, the compound AlMe2(1-Dd-CB11F11), where Dd is dodecyl, is soluble in hexanes and methylcyclohexane and stable for at least 10 days at 25° C.\nA suspension of CPh3(1-Et-CB11F11) (0.412 g, 0.67 mmol) in pentane (40 ml) was treated with a solution of Si(i-Pr)3H (0.215 g, 1.36 mmol, 2 equiv.) in pentane (10 ml) for 20 hours at room temperature. The mixture was treated with more Si(i-Pr)3H (0.56 g, 3.54 mmol) for another 20 hours. (Note, that a large excess of Si(i-Pr)3H (˜7 equiv.) required for the reaction to go to completion. A slightly pink pentane solution was filtered from a small amount of red-brown oily solid (˜20 mg, which upon dissolving of in acetonitile was identified as a mixture of CPh3(1-Et-CB11F11) and [Si(i-Pr)3(CD3CN)][1-Et-CB11F11]. The volume of the pentane solution was reduced to ˜5 ml, which caused the formation of white solid. The solid was separated by filtration, washed three times with 1 ml of pentane and dried under nitrogen atmosphere inside the glove box. The yield of Si(i-Pr)3(1-Et-CB11F11) as an off-white crystalline solid was 0.198 g (56%). […]"}, "[6]": {"assay": "Zirconocene catalyzed selective dimerization of 1-hexene", "conditions": "for turnovers number within the first five minutes: co-catalyst with Cp2ZrMe2, first five minutes", "procedure": "A solution of Al(CH3)2(1-[…]-CB11F11) (6.1 mg, 10.8 μmol) in 0.28 ml of methylcyclohexane was treated with a solution of Cp2ZrMe2 (2.3 mg, 9.1 μmol) in 1-hexene (3.654 g). The resulted mixture was stirred under a nitrogen atmosphere and the samples were taken from the reaction mixture after 5 minutes and 55 minutes. According to ^1H NMR spectra of the reaction mixtures approximately 33% of 1-hexene were reacted within 5 minutes, and approximately 99% of 1-hexene were reacted within 55 minutes. The reaction was exothermic as indicated by the significant self-heating of the reaction mixture during the reaction. The reaction products were analyzed by ^1H, ^13C NMR and GC-MS. According to the analysis the reaction mixture contained 83% of 1-hexene dimerization products (more than 95% of 2-butyl-1-octene) and 17% of 1-hexene isomerization products (the distribution of hexene isomers was as follows: E-2 hexene-56%, Z-2 hexene-26%, E-3 hexene-15%, and Z-3 hexene-3%). The total turnovers number of the activated zirconocene catalyst was calculated to be 4780 (87 TON·min^−1). The turnovers number within the first five minutes of the reaction was approximately 315 TON·min^−1"}, "[7]": {"assay": "Polymerization of ethylene in hexanes", "conditions": "hexanes solution, 24° C., 703 torr ethylene, 18 h", "procedure": "A suspension of [CPh3][1-C12H25-CB11F11] (5.0 mg) in 0.5 ml of methylcyclohexane-d14 was treated with 0.5 ml of methylcyclohexane-d14 solution of Al(CH3)3 (2.2 mg) for 20 h. […] The filtrate was diluted with 7 ml of hexanes and transferred into a 50 ml Kontes tube. The solution was treated with 703 torr of ethylene for 18 h at 24° C. and small amount of white solid was formed. The mixture was treated with 3 ml of methanol for 20 minutes. A solid polyethylene was collected (3 mg) by filtration and characterized by DSC (Tm=126° C.)."}, "[8]": {"procedure": "Hexanes and an excess of trimethylaluminum were removed under vacuum.\nA mixture of [CPh3][(CH3)3NB12F11] […] A mixture was stirred under a nitrogen atmosphere for 20 h.\nThe orange microcrystalline compound (CPh3)2B12F12 (0.195 g, 0.231 mmol) was treated with 2 ml of toluene solution of AlMe3 (0.161 g, 2.240 mmol). […] The mixture was stirred for additional 40 hours."}, "[9]": {"assay": "Arene-olefin coupling of toluene-d8 with ethylene", "conditions": "toluene-d8, 656 torr ethylene, 14.5 hours, 24° C.", "procedure": "Compounds of Formula IA are useful in a variety of organic reactions including in an arene-olefin coupling reaction. Thus, when the above reaction was repeated under one atmosphere of ethylene (CH2═CH2), a GC-MS analysis of the reaction mixture after 14.5 hr at 24° C. indicated the catalytic formation of all three positional isomers (i.e., the ortho (47%), meta (35%), and para (18%) isomers) of C6D4(CD3)(CH2CH2D) (the number of turnovers in this particular experiment was approximately 60-70. Without being bound any theory, the proposed catalytic scheme, which includes the catalytic activation of aromatic C—H bonds and the catalytic insertion of ethylene into an aluminum-aryl bond, is shown in FIG. 1 in a generic scheme using C6H6 as the substrate instead of C6D5CD3 for simplicity (the coordinated fluorocarborate anion (i.e., Q moiety) has also been omitted from the scheme for simplicity). It should be appreciated that the AlPh2^+1 species shown in FIG. 1 may in fact be a mixture of AlPh2^+1 and AlMePh^+1 species.\nA compound Al(CH3)2(1-CH3-CB11F11) (2 mg) was dissolved in 1 ml of toluene-d8 and transferred into a sealable NMR tube. The solution was degassed under vacuum and treated with 656 torr of ethylene for 14.5 hours at 24° C. Proton NMR spectrum of the solution indicated the formation of ethyltoluene. […]"}, "[10]": {"assay": "Alkylation of benzene with 1-hexene", "conditions": "benzene + 1-hexene, 25 hours", "procedure": "A mixture of Al(CH3)2(1-CH3-CB11F11) (2.5 mg, 4.4 μmol), benzene (0.964 g, 12.4 mmol) and 1-hexene (0.224 g, 2.7 mmol) was stirred for 25 hours under a nitrogen atmosphere. […] A GC-MS analysis of the reaction mixture indicated the formation of monohexylbenzenes (29%), dihexylbenzenes (20%) and trihexylbenzenes (51%). The relative amounts of 2-phenylhexane and 3-phenylhexane were 70% and 30%, respectively. Total turnovers number of aluminum alkyl catalyst was calculated to be approximately 606 (24 TON/h)."}}, "data": [{"substance": "methylalurnoxane [MAO]", "values": [{"measurement": "stability when stored in solution", "setting": "[1]", "result": "not stable"}, {"measurement": "activity, conventional co-catalyst", "setting": "[2]", "result": 30, "unit": "TON ·min^−1"}, {"measurement": "total turnovers number of the catalyst, conventional co-catalyst", "setting": "[2]", "result": 500}, {"measurement": "solubility in aliphatic hydrocarbon solvents", "setting": "[3]", "result": "limited solubilities"}]}, {"substance": "Al(CH3)2(1-C12H25-CB11F11)", "values": [{"measurement": "catalytic activity during the first 5 minutes", "setting": "[4]", "result": "at least 150 kg PE/mol Zr·h·atm"}, {"measurement": "stable in solution", "setting": "[5]; hexanes and methylcyclohexane, 25° C.", "result": "at least 10 days"}, {"measurement": "total turnovers number of the activated zirconocene catalyst", "setting": "[6]; co-catalyst with Cp2ZrMe2, 1-hexene, 55 minutes", "result": 4780}, {"measurement": "turnover rate over whole reaction", "setting": "[6]; co-catalyst with Cp2ZrMe2, 55 minutes", "result": 87, "unit": "TON·min^−1"}, {"measurement": "turnovers number within the first five minutes", "setting": "[6]", "result": 315, "unit": "TON·min^−1"}, {"measurement": "turnovers number within the first five minutes", "setting": "[6]; listed as Al(CH3)2(1-C2H25-CB11F11)", "result": "approximately 315 TON·min^−1"}, {"measurement": "1-hexene reacted", "setting": "[6]; within 5 minutes", "result": "approximately 33%"}, {"measurement": "1-hexene reacted", "setting": "[6]; within 55 minutes", "result": "approximately 99%"}, {"measurement": "activity for polymerization of ethylene", "setting": "[7]", "result": "approximately 33 g PE/mol Al·h·at"}]}, {"substance": "Al(CH3)2((CH3)3NB12F11)", "values": [{"measurement": "solubility in acetonitrile-d3", "setting": "[8]", "result": "completely dissolved"}, {"measurement": "solubility in toluene", "setting": "[8]", "result": "not soluble"}]}, {"substance": "Al(CH3)2(1-CH3-CB11F11)", "values": [{"measurement": "number of turnovers (TON), formation of ethyltoluene", "setting": "[9]", "result": "approximately 66"}, {"measurement": "number of turnovers (TON), formation of ethyltoluene", "setting": "[9]; listed as AlMe2(1-Me-CB11F11)", "result": "60-70"}, {"measurement": "total turnovers number of aluminum alkyl catalyst", "setting": "[10]", "result": "approximately 606"}, {"measurement": "turnover rate", "setting": "[10]", "result": 24, "unit": "TON/h"}]}, {"substance": "(AlMe2)2B12F12", "values": [{"measurement": "solubility in acetonitrile-d3", "setting": "[8]", "result": "dissolved"}, {"measurement": "solubility in toluene", "setting": "[8]", "result": "not soluble"}]}, {"substance": "Si(i-Pr)3(1-Et-CB11F11)", "values": [{"measurement": "sensitivity to traces of water", "setting": "[5]; solid, storage under nitrogen", "result": "extremely sensitive"}]}]}
